From patent US20250255945A1, “CLICK CHEMISTRY HLA POLYPEPTIDES” (IMMUNEO Therapeutics GmbH, priority 2024, published 2025)

Legend:
[1] = test system: prostate cancer with bone metastases; assay: Case study Example 4: immunization of a subject with prostate cancer and bone metastases with PrCa-PC1/PrCa-PC2; format: in vivo, human; details: after 70 days
Method: • Subject: A person • Date of Admission: Oct. 4, 2022 • Complaints: Urinary urgency, interrupted urination, nocturia, and erectile dysfunction
• PSA Level: 99.77 ng/mL (See FIG. 9A) • MRI Examination: Moderately enlarged prostate with extensive, organ-crossing, and infiltrating prostate cancer on the left side. • PSMA-PET Examination: Involvement of the middle gland and apex on the left periphery, infiltrating the left seminal vesicles. No PSMA positive lymph node metastases found, but sclerotic bone metastases reported (See FIG. 9B). • First Biopsies: Taken from bone metastases in the area of the lateral mass of the left sacrum. Pathological assessment confirmed malignant prostatic origin.
(§1) • Step (a): the pharmaceutical composition comprising the 12 synthetic HLA tumor antigen polypeptides and XS15 as adjuvant were synthesized as chemical peptides, • Step (b): the 12 HLA tumor antigen polypeptides were mixed in 25% DMSO/H2O application solution and divided multiple vial units of 1 nil each, Dose per HLA tumor antigen polypeptide: 300 μg
as §1, with “7” for “12”, “ml” for “nil”, “μg […]” for “μg”

[2] = test system: peripheral blood mononuclear cells (PBMCs); assay: IFN-γ ELISPOT assay (ex vivo) with subject PBMCs; format: cell-based, human
Method: IFNγ ELISpot analysis (for protocol see A. Lalvani, R. Brookes, S. Hambleton, W. J. Britton, A. V. S. Hill, A. J. McMichael, J Exp Med 1997; 186 (6): 859-865) was performed ex vivo (without further in vitro culturing for expansion) using PBMCs depleted of CD4+ and enriched for CD8+ T cells (CD8+ effectors), or depleted of CD8+ and enriched for CD4+ T cells (CD4+ effectors). Tests were performed in duplicate and with a positive and negative control, Multiscreen filter plates (Merck Millipore) pre-coated with IFNγ-specific antibodies (ELISpotPro kit, Mabtech). 267.000 Cells were used per plate. Plates were scanned using an AID Classic Robot ELISPOT Reader and analyzed by AID ELISPOT 7.0 software (AID Autoimmun Diagnostika). Antigen Peptides (except negative and positive control group) were done in duplicates, spot counts were taken as mean values of each duplicate.
The immunogenicity of each of the six peptides was analyzed by IFN-γ secretion by subject peripheral blood mononuclear cells (PBMCs) using ELIspot assay. […]
The immunogenicity of each peptide was assessed in peripheral blood mononuclear cells (PBMCs) from patients and using the IFN-γ-ELISPOT assay. ELISPOT results were considered positive if the number of spots was at least 2-fold higher than the negative control (medium) and at least 50 spots were detected. […] We also tested the effect of delivery aiding peptides (DACP-1) and peptide extension by overlapping tandemization and tandemization on the immunogenicity of the epitopes.

[3] = Table 6, further HTAPPs, HTAPP-DACPs and reference sequences
[4] = Table 5, HTAPP-DACP related to group therapy

Compound	Elispot [nspots/pM] [2, 4]	other results
CC(O)(CS(=O)(=O)c1ccc(F)cc1)C(=O)Nc1ccc(C#N)c(C(F)(F)F)c1 (stereo not shown) [Bicalutamide]		tolerability (discontinuation) [1]: side effects
72 (MLFSNITPK) [compound 72]		Elispot [nspots/pM] [2, 3]: 148,0 nspots/pM
67 (YGIPFIETSTKTRQRVEDARQIKIWFQNRRMKWKK) [compound 67]	248,3 nspots/pM	
82 (LEKLYLYFNKISKIENLEKLIKRQIKIWFQNRRMKWKK) [compound 82]		Elispot [nspots/pM] [2, 3]: 305,0 nspots/pM
53 (MAQYLSTLLLLLATLAVALRQIKIWFQNRRMKWKK) [compound 53]	190,8 nspots/pM	
61 (QHVKITDFGRAKLLGAEEKRQIKIWFQNRRMKWKK) [compound 61]	76,7 nspots/pM	
68 (YKLVVVGAGDVGKSALTIQLIQNHFVDRQIKIWFQNRRMKWKK) [compound 68]	154,2 nspots/pM	
